Experimental data published in patent US20240269139A1, “COMPOUNDS FOR TARGETED PROTEIN DEGRADATION OF KINASES” (DANA-FARBER CANCER INSTITUTE, INC., priority 2020, published 2024).
Read-outs that look alike come from different tables or passages of the source.

How the values were obtained:
[1] = molecular target: protein kinases (human kinome) (Homo sapiens, UniProt Q15418); type: cell-based; settings: for logFC: RPS6KA1 (Q15418-1), direction down
[2] = molecular target: T1, extended human kinome (kinase-like proteins) (Homo sapiens, UniProt Q9UHH9); experiment: Whole cell quantitative proteomics: extended kinome hits; settings: Accession Q9UHH9
T1 sequence (Q9UHH9 1-426): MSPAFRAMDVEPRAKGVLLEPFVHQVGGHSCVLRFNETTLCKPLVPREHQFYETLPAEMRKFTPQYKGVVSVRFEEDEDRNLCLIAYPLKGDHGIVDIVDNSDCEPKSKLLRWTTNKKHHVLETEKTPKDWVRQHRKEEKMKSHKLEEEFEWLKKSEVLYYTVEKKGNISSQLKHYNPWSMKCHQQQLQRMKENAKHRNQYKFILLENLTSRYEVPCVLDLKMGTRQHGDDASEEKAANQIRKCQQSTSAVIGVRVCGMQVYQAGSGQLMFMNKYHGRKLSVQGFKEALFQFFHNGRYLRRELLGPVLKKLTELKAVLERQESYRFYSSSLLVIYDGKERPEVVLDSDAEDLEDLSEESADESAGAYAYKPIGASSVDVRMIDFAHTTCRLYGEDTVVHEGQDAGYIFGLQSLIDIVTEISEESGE

[3] = molecular target: protein kinases (human kinome) (Homo sapiens, UniProt P31751); type: cell-based; settings: AKT2 (P31751)
[4] = molecular target: T2, protein kinases (human kinome) (Homo sapiens, UniProt P42680); type: cell-based; settings: TEC (P42680)
T2 sequence (P42680 1-631): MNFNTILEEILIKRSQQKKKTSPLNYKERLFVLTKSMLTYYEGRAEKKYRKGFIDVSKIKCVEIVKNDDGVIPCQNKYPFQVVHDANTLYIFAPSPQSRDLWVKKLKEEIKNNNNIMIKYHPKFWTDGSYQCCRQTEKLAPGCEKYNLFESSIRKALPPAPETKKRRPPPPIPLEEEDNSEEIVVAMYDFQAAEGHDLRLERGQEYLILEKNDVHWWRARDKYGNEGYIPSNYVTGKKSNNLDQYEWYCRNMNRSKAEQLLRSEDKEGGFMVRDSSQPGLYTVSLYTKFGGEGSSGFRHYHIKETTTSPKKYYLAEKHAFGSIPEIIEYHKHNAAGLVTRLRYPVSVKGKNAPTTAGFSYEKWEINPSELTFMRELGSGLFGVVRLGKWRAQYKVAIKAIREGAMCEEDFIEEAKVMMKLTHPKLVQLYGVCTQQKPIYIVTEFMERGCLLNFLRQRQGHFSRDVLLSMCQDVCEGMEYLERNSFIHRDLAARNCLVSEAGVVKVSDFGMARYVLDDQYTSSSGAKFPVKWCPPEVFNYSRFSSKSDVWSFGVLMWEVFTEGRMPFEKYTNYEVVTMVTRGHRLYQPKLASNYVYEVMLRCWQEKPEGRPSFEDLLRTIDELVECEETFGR

[5] = molecular target: protein kinases (human kinome) (Homo sapiens, UniProt P23443); type: cell-based; settings: for logFC: RPS6KB1 (P23443-1)
[6] = molecular target: protein kinases (human kinome) (Homo sapiens, UniProt O94921); type: cell-based; settings: for logFC: CDK14 (O94921-1)
[7] = molecular target: protein kinases (human kinome) (Homo sapiens, UniProt Q5S007); type: cell-based
[8] = system: protein kinases in MOLT-4 cells; experiment: Whole cell quantitative proteomics in MOLT-4 cells; settings: for GCK binding and degradation: 1 μM, 5 h
CRBN = molecular target: T3, CRBN (Homo sapiens, UniProt Q96SW2); experiment: Competitive displacement assay for cellular CRBN engagement (BRD4BD2-GFP reporter, dBET6); type: cell-based, H. sapiens; settings: 5 hours in presence of dBET6
T3 construct: HEK293T cells stably expressing the BRD4BD2-GFP with mCherry reporter; endogenous in cells; host or cells: HEK293T stably expressing BRD4BD2-GFP / mCherry reporter
Description: HEK293T cells stably expressing the BRD4BD2-GFP with mCherry reporter were seeded at 30-50% confluency in 384-well plates with 50 μL FluoroBrite™ Dulbecco's Modified Eagle's medium (DMEM) media (Thermo Fisher Scientific. A18967) containing 10% fetal bovine serum (FBS) per well a day before compound treatment. Degrader titrations and 100 nM dBET6 or 250 nM AT1 were dispensed using a D300e Digital Dispenser (HP), normalized to 0.5% DMSO, and incubated with cells for 5 hours. Assay plates were imaged using Acumen® (TTP Labtech), as described above.

[9] = experiment wp137, direction down
[10] = experiment wp107, direction down

Cc1ccc(NC(=O)c2cccc(C(F)(F)F)c2)cc1N1Cc2cnc(Nc3ccc(N4CCN(CCCOc5cccc6c5C(=O)N(C5CCC(=O)NC5=O)C6=O)CC4)nc3)nc2N(C)C1=O (stereo not shown) [DB0662]
logFC ([1]; experiment wp168): −0.4724
logFC RPS6KA1 (Q15418-1) ([1]; experiment wp168): −0.4724

C[C@@H]1C[C@@H](O)c2ncnc(N3CCN(C(=O)[C@H](CNCCCCCCCCCCc4cccc5c4C(=O)N(C4CCC(=O)NC4=O)C5=O)c4ccc(Cl)cc4)CC3)c21 (stereo partly shown) [INY.03.041.01]
logFC IP6K2 ([2]; experiment wp118): −0.662
logFC IP6K2 ([2]; experiment wp135, 4 hr): −0.3251
logFC ([3]; experiment wp118): −2.777
logFC ([3]; experiment wp118, direction down): −2.777
logFC ([3]; experiment wp135, 4 hr): −1.739
logFC ([3]; experiment wp135, 4 hr, direction down): −1.739

CC(C)S(=O)(=O)c1ccccc1Nc1nc(Nc2ccc(N3CCN(CCOCCOCCC(=O)NCCNc4cccc5c4CN(C4CCC(=O)NC4=O)C5=O)CC3)cc2)ncc1Cl (stereo not shown) [TL13.97]
logFC ([4]; experiment wp137): −1.712
logFC [4, 9]: −1.712

Cc1cnc(Nc2ccc(N3CCN(CCCCCCC(=O)N[C@H](C(=O)N4C[C@H](O)C[C@H]4C(=O)N[C@@H](C)c4ccc(-c5scnc5C)cc4)C(C)(C)C)CC3)cc2)nc1Nc1cccc(S(=O)(=O)NC(C)(C)C)c1 [JWG.123]
logFC of RPS6KB1 (P23443-1) ([5]; Experiment wp195): −0.3426
logFC ([5]; experiment wp195): −0.3426

Cc1cc(Nc2ncc(Br)c(Nc3cccc(F)c3C(N)=O)n2)ccc1S(=O)(=O)NCCOCCOCCOCCOCCNc1cccc2c1C(=O)N(C1CCC(=O)NC1=O)C2=O (stereo not shown) [TMX.02.174]
logFC ([4]; experiment wp146): −0.9362
logFC ([4]; experiment wp146, direction down): −0.9362

Cc1ncsc1-c1ccc([C@H](C)NC(=O)[C@@H]2C[C@@H](O)CN2C(=O)[C@@H](NC(=O)CCCCCN2CCc3cc(Nc4ncc(C5CC5)c(NCCCNC(=O)C5CCC5)n4)ccc3C2)C(C)(C)C)cc1 [BSJ.05.026]
logFC of RPS6KB1 (P23443-1) ([5]; Experiment wp195): −0.5629
logFC ([5]; experiment wp195): −0.5629

Cc1ncsc1-c1ccc([C@H](C)NC(=O)[C@@H]2C[C@@H](O)CN2C(=O)[C@@H](NC(=O)CCCCCN2CCN(c3ccc(Nc4ncc5scc(-c6cccc(NS(C)(=O)=O)c6)c5n4)cc3)CC2)C(C)(C)C)cc1 [RSS0680, (2S,4R)-1-((S)-3,3-Dimethyl-2-(6-(4-(4-((7-(3-(methylsulfonamido)phenyl)thieno[3,2-d]pyrimidin-2-yl)amino)phenyl)piperazin-1-yl)hexanamido)butanoyl)-4-hydroxy-N—((S)-1-(4-(4-methylthiazol-5yl)phenyl)ethyl)pyrrolidine-2-carboxamide]
logFC of RPS6KB1 (P23443-1) ([5]; Experiment wp117): −0.3893
logFC ([5]; experiment wp080): −0.4358
logFC ([5]; experiment wp117): −0.3893
logFC of RPS6KB1 (P23443-1) ([5]; experiment wp080): −0.4358

CC(C)S(=O)(=O)c1ccccc1Nc1nc(Nc2ccc(N3CCN(CCOCCNC(=O)CNc4cccc5c4C(=O)N(C4CCC(=O)NC4=O)C5=O)CC3)cc2)ncc1Cl (stereo not shown) [SK.3.91]
logFC IP6K2 ([2]; experiment wp016, 1 uM): −0.9368
logFC IP6K2 ([2]; experiment wp107): −1.472
logFC IP6K2 ([2]; experiment wp133, 1 hr): −0.4547
logFC IP6K2 ([2]; experiment wp133, 2 hr): −0.6461
logFC IP6K2 ([2]; experiment wp133, 4 hr): −0.9692
logFC IP6K2 ([2]; experiment wp160, 2 hr): −0.4937
logFC IP6K2 ([2]; experiment wp160, 4 hr): −0.6281
logFC of RPS6KB1 (P23443-1) ([5]; Experiment wp107): −0.4197
logFC ([5]; experiment wp107): −0.4197
logFC RPS6KA1 (Q15418-1) ([1]; Experiment wp172): −0.4561
logFC ([1]; experiment wp107): −0.3671
logFC ([1]; experiment wp160, 4 hr): −0.363
logFC ([1]; experiment wp172): −0.4561
logFC RPS6KA1 (Q15418-1) ([1]; experiment wp107): −0.3671
logFC RPS6KA1 (Q15418-1) ([1]; experiment wp160, 4 hr): −0.363
logFC ([4]; experiment wp103): −0.6497
logFC ([4]; experiment wp103, direction down): −0.6497
logFC ([4]; experiment wp107): −1.146
logFC [4, 10]: −1.146
logFC ([6]; experiment wp172): −0.8176
logFC of CDK14 (O94921-1) ([6]; Experiment wp172): −0.8176
logFC ([3]; experiment wp105): −0.8722
logFC ([3]; experiment wp105, direction down): −0.8722
logFC ([3]; experiment wp107): −0.4141
logFC [3, 10]: −0.4141
logFC ([7]; LRRK2 (Q5S007), experiment wp160, 1 hr): −0.8447
logFC of LRRK2 (Q5S007) ([7]; experiment wp160, 1 hr): −0.8447

Cc1ccc(NC(=O)c2cccc(C(F)(F)F)c2)cc1N1Cc2cnc(Nc3ccc(N4CCN(CCCCC(=O)N[C@H](C(=O)N5C[C@H](O)C[C@H]5C(=O)N[C@@H](C)c5ccc(-c6scnc6C)cc5)C(C)(C)C)CC4)nc3)nc2N(C)C1=O [DB1113]
logFC ([1]; experiment wp168): −0.7297
logFC RPS6KA1 (Q15418-1) ([1]; experiment wp168): −0.7297

O=C1CCC(N2C(=O)c3cccc(NCCCCCCCCN4CCC(NC(=O)c5[nH]ncc5NC(=O)c5c(Cl)cccc5Cl)CC4)c3C2=O)C(=O)N1 (stereo not shown) [MFH.5.126.1]
logFC ([6]; experiment wp076): −0.3413
logFC of CDK14 (O94921-1) ([6]; experiment wp076): −0.3413

Cc1ccc(C(=O)Nc2ccc(CN3CCN(CCCOCCOCCOCCNC(=O)COc4cccc5c4C(=O)N(C4CCC(=O)NC4=O)C5=O)CC3)c(C(F)(F)F)c2)cc1C#Cc1cnc2cccnn12 (stereo not shown) [SB1-G-187, N-(4-((4-(1-((2-(2,6-dioxopiperidin-3-yl)-1,3-dioxoisoindolin-4-yl)oxy)-2-oxo-6,9,12-trioxa-3-azapentadecan-15-yl)piperazin-1-yl)methyl)-3 (trifluoromethyl)phenyl)-3-(imidazo[1,2-b]pyridazin-3-ylethynyl)-4-methylbenzamide]
GCK binding and degradation [8]: bound and degraded
cellular permeability / CRBN engagement (CRBN): able to permeate the cell membrane and bind to the CRBN E3 ligase

CC(C)S(=O)(=O)c1ccccc1Nc1nc(Nc2ccc(N3CCN(CCOCCNC(=O)CNc4cccc5c4C(=O)N(C4CCC(=O)NC4=O)C5=O)CC3)cc2)ncc1Cl (stereo not shown) [SK-3-91]
GCK binding and degradation [8]: not degraded
kinase degradation over time ([8]; MOLT-4, 1 μM, 1, 2, 4, 8 and 12 h): most kinases showed increased degradation over time
cellular permeability / CRBN engagement (CRBN): able to permeate the cell membrane and bind to the CRBN E3 ligase

CC(C)S(=O)(=O)c1ccccc1Nc1nc(Nc2ccc(N3CCN(CCOCCOCCNC(=O)CNc4cccc5c4C(=O)N(C4CCC(=O)NC4=O)C5=O)CC3)cc2)ncc1Cl (stereo not shown) [TL12.186]
logFC IP6K2 ([2]; experiment wp137): −0.7538
logFC ([1]; experiment wp131): −0.3562
logFC RPS6KA1 (Q15418-1) ([1]; experiment wp131): −0.3562
logFC ([4]; experiment wp137): −2.11
logFC [4, 9]: −2.11
